Patent US4232035A, “Carbamate pesticidal compounds compositions and methods of use” (priority 1975, dated 1980)

The compounds below were run on bean aphid (Aphis fabae Scop.) (assay: Bean Aphid Foliage Spray Test). Settings: 500 parts per million foliage spray; 24 hour holding period.
Assay type: in vivo
Design: key: A: excellent control; B: partial control; C: no control
Protocol: (§1) Suspensions of the test compounds were prepared by dissolving one gram of compound in 50 milliliters of acetone in which had been dissolved 0.1 gram (10 percent of the weight of compound) of an alkylphenoxy polyethoxyethanol surfactant, as an emulsifying or dispersing agent. The resulting solution was mixed into 150 milliliters of water to give roughly 200 milliliters of a suspension containing the compound in finely divided form. The thus-prepared stock suspension contained 0.5 percent by weight of compound. The test concentrations in parts per million by weight employed in the tests described hereinbelow were obtained by appropriate dilutions of the stock suspension with water. The test procedures were as follows:
Adults and nymphal stages of the bean aphid (Aphis fabae Scop.) reared on potted dwarf nasturtium plants at 65°-70° F. and 50-70 percent relative humidity, constituted the test insects. For testing purposes, the number of aphids per pot was standardized to 100-150 by trimming plants containing excess aphids.
The test compounds were formulated by diluting the stock suspension with water to give a suspension containing 500 parts of test compound per million parts of final formulation.
The potted plants (one pot per compound tested) infested with 100-150 aphids, were placed on a revolving turntable and sprayed with 100-110 milliliters of test compound formulation by use of a DeVilbiss spray gun set at 40 psig. air pressure. This application, which lasted 25 seconds, was sufficient to wet the plants to run-off. As a control, 100-110 milliliters of a water-acetone-emulsifier solution containing no test compound were also sprayed on infested plants. After spraying, the pots were placed on their sides on a sheet of white standard mimeograph paper which had been previously ruled to facilitate counting. Temperature and humidity in the test room during the 24 hour holding period were 65°-70° F. and 50-70 percent, respectively. Aphids which fell onto the paper and were unable to remain standing after being uprighted were considered dead. Aphids remaining on the plants were observed closely for movement and those which were unable to move the length of the body upon stimulation by prodding were considered dead. Percent mortality was recorded for various concentration levels.

Row | Structure (SMILES) | Aphid, pesticidal activity rating
1 | CCCCSSN(C)C(=O)ON=C1SC(C)(C)C(=O)N1C | A
2 | Cc1ccc(SSN(C)C(=O)ON=C2SCOC2C)cc1 (stereo not drawn) | A
3 | CC(C)SSN(C)C(=O)ON=C1SCOC1C (stereo not drawn) | A
4 | CN(SSc1ccccc1)C(=O)ON=C1SC(C)(C)C(=O)N1C | A
5 | CN(SSc1ccc(C(C)(C)C)cc1)C(=O)ON=C1SC(C)(C)C(=O)N1C | C
6 | Cc1ccc(SSN(C)C(=O)ON=C2SC(C)(C)C(=O)N2C)cc1 | C
7 | CCCCCCCCSSN(C)C(=O)ON=C1SCOC1C (stereo not drawn) | A
8 | CN(SSc1ccc(C(C)(C)C)cc1)C(=O)ON=C1CSCCS1 | A

What follows are compounds tested on two-spotted mite (Tetranychus urticae Koch) (assay: Mite Foliage Spray Test). Settings: 500 parts per million foliage spray; six days.
Assay type: in vivo
Design: key: A: excellent control; B: partial control; C: no control
Protocol: as §1
Adults and nymphal stages of the two-spotted mite (Tetranychus urticae Koch), reared on Tendergreen bean plants at 80±5 percent relative humidity, were the test organisms. Infested leaves from a stock culture were placed on the primary leaves of two bean plants six to eight inches in height, growing in a two-and-a-half inch clay pot. 150-200 Mites, a sufficient number for testing, transferred from the excised leaves to the fresh plants in a period of twenty four hours. Following the twenty four hour transfer period, the excised leaves were removed from the infested plants. The test compounds were formulated by diluting the stock suspension with water to give a suspension containing 500 parts of test compound per million parts of final formulation. The potted plants (one pot per compound) were placed on a revolving turntable and sprayed with 100-110 milliliters of test compound formulation by use of a DeVilbiss spray gun set at 40 psig. air pressure. This application, which lasted 25 seconds, was sufficient to wet the plants to run-off. As a control, 100-110 milliliters of a water solution containing acetone and emulsifier in the same concentrations as the test compound formulation, but containing no test compound, were also sprayed on infested plants. The sprayed plants were held at 80±5 percent relative humidity for six days, after which a mortality count of motile forms was made. Microscopic examination for motile forms was made on the leaves of the test plants. Any individual which was capable of locomotion upon prodding was considered living.

Row | Structure (SMILES) | Mite, pesticidal activity rating
9 | CCCCSSN(C)C(=O)ON=C1SC(C)(C)C(=O)N1C | A
10 | Cc1ccc(SSN(C)C(=O)ON=C2SCOC2C)cc1 (stereo not drawn) | A
11 | CC(C)SSN(C)C(=O)ON=C1SCOC1C (stereo not drawn) | A
12 | CN(SSc1ccccc1)C(=O)ON=C1SC(C)(C)C(=O)N1C | C
13 | CN(SSc1ccc(C(C)(C)C)cc1)C(=O)ON=C1SC(C)(C)C(=O)N1C | C
14 | Cc1ccc(SSN(C)C(=O)ON=C2SC(C)(C)C(=O)N2C)cc1 | C
15 | CCCCCCCCSSN(C)C(=O)ON=C1SCOC1C (stereo not drawn) | A
16 | CN(SSc1ccc(C(C)(C)C)cc1)C(=O)ON=C1CSCCS1 | A

These compounds were tested on southern armyworm (Prodenia eridania, (Cram.)) (assay: Southern Armyworm Leaf Spray Test). Settings: 500 parts per million leaf spray; three days.
Assay type: in vivo
Design: key: A: excellent control; B: partial control; C: no control
Protocol: as §1
Larvae of the southern armyworm (Prodenia eridania, (Cram.)), reared on Tendergreen bean plants at a temperature of 80°±5° F. and a relative humidity of 50±5 percent, constituted the test insects.
The test compounds were formulated by diluting the stock suspension with water to give a suspension containing 500 parts of test compound per million parts of final formulation. Potted Tendergreen bean plants of standard height and age were placed on a revolving turntable and sprayed with 100-110 milliliters of test compound formulation by use of a DeVilbiss spray gun set at 10 psig air pressure. This application, which lasted 25 seconds, was sufficient to wet plants to run-off. As a control, 100-110 milliliters of a water-acetone-emulsifier solution containing no test compound were also sprayed on infested plants. When dry, the paired leaves were separated and each one was placed in a 9 centimeter Petri dish lined with moistened filter paper. Five randomly selected larvae were introduced into each dish and the dishes were closed. The closed dishes were labeled and held at 80°-85° F. for three days. Although the larvae could easily consume the whole leaf within twenty-four hours, no more food was added. Larvae which were unable to move the length of the body, even upon stimulation by prodding, were considered dead. Percent mortality was recorded for various concentration levels.

Row | Structure (SMILES) | S. Armyworm, pesticidal activity rating
17 | CCCCSSN(C)C(=O)ON=C1SC(C)(C)C(=O)N1C | A
18 | Cc1ccc(SSN(C)C(=O)ON=C2SCOC2C)cc1 (stereo not drawn) | A
19 | CC(C)SSN(C)C(=O)ON=C1SCOC1C (stereo not drawn) | A
20 | CN(SSc1ccccc1)C(=O)ON=C1SC(C)(C)C(=O)N1C | A
21 | CN(SSc1ccc(C(C)(C)C)cc1)C(=O)ON=C1SC(C)(C)C(=O)N1C | A
22 | Cc1ccc(SSN(C)C(=O)ON=C2SC(C)(C)C(=O)N2C)cc1 | A
23 | CCCCCCCCSSN(C)C(=O)ON=C1SCOC1C (stereo not drawn) | A
24 | CN(SSc1ccc(C(C)(C)C)cc1)C(=O)ON=C1CSCCS1 | A

Each compound was assayed on Mexican bean beetle (Epilachna varivestis, Muls.) (assay: Mexican Bean Beetle Leaf Spray Test). Settings: 500 parts per million leaf spray; fourth instar larvae; three days.
Assay type: in vivo
Design: key: A: excellent control; B: partial control; C: no control
Protocol: as §1
Fourth instar larvae of the Mexican bean beetle (Epilachna varivestis, Muls.), reared on Tendergreen bean plants at a temperature of 80°±5° F. and 50±5 percent relative humidity, were the test insects.
The test compounds were formulated by diluting the stock suspension with water to give a suspension containing 500 parts of test compound per million parts of final formulation. Potted Tendergreen bean plants of standard height and age were placed on a revolving turntable and sprayed with 100-110 milliliters of test compound formulation by use of a DeVilbiss spray gun set at 10 psig air pressure. This application, which lasted 25 seconds, was sufficient to wet plants to run-off. As a control, 100-110 milliliters of a water-acetone-emulsifier solution containing no test compound were also sprayed on infested plants. When dry, the paired leaves were separated and each was placed in a 9 centimeter Petri dish lined with moistened filter paper. Five randomly selected larvae were introduced into each dish, and the dishes were closed. The closed dishes were labeled and held at a temperature of 80°±5° F. for three days. Although the larvae could easily consume the leaf within 24 to 48 hours, no more food was added. Larvae which were unable to move the length of the body, even upon stimulation, were considered dead.

Row | Structure (SMILES) | M. Bean Beetle, pesticidal activity rating
25 | CCCCSSN(C)C(=O)ON=C1SC(C)(C)C(=O)N1C | A
26 | Cc1ccc(SSN(C)C(=O)ON=C2SCOC2C)cc1 (stereo not drawn) | A
27 | CC(C)SSN(C)C(=O)ON=C1SCOC1C (stereo not drawn) | A
28 | CN(SSc1ccccc1)C(=O)ON=C1SC(C)(C)C(=O)N1C | A
29 | CN(SSc1ccc(C(C)(C)C)cc1)C(=O)ON=C1SC(C)(C)C(=O)N1C | A
30 | Cc1ccc(SSN(C)C(=O)ON=C2SC(C)(C)C(=O)N2C)cc1 | A
31 | CCCCCCCCSSN(C)C(=O)ON=C1SCOC1C (stereo not drawn) | A
32 | CN(SSc1ccc(C(C)(C)C)cc1)C(=O)ON=C1CSCCS1 | A

What follows are compounds tested on house flies (Musca domestica, L.) (assay: Fly Bait Test). Settings: 500 parts per million bait in sugar solution; twenty four hours.
Assay type: in vivo
Design: key: A: excellent control; B: partial control; C: no control
Protocol: as §1
Four to six day old adult house flies (Musca domestica, L.) reared according to the specifications of the Chemical Specialties Manufacturing Association (Blue Book, McNair-Dorland Co., N.Y. 1954; pages 243-244, 261) under controlled conditions of 80°±5° F. and 50±5 percent relative humidity, were the test insects. The flies were immobilized by anesthetizing with carbon dioxide and twenty five immobilized individuals, males and females, were transferred to a cage consisting of a standard food strainer about five inches in diameter which was inverted over a wrapping-paper-covered surface. The test compounds were formulated by diluting the stock suspension with a 10 percent (by weight) sugar solution to give a suspension containing 500 parts of test compound per million parts of final formulation, by weight. Ten milliliters of the test formulation were added to a souffle cup containing a one-inch square of an absorbent cotton pad. This bait cup was introduced and centered on the blotting paper under the food strainer prior to admitting the anesthetized flies. The caged flies were allowed to feed on the bait for twenty four hours, at a temperature of 80°±5° F. and the relative humidity of 50±5 percent.

Row | Structure (SMILES) | H. Fly, pesticidal activity rating
33 | CCCCSSN(C)C(=O)ON=C1SC(C)(C)C(=O)N1C | A
34 | Cc1ccc(SSN(C)C(=O)ON=C2SCOC2C)cc1 (stereo not drawn) | A
35 | CC(C)SSN(C)C(=O)ON=C1SCOC1C (stereo not drawn) | A
36 | CN(SSc1ccccc1)C(=O)ON=C1SC(C)(C)C(=O)N1C | B
37 | CN(SSc1ccc(C(C)(C)C)cc1)C(=O)ON=C1SC(C)(C)C(=O)N1C | C
38 | Cc1ccc(SSN(C)C(=O)ON=C2SC(C)(C)C(=O)N2C)cc1 | C
39 | CCCCCCCCSSN(C)C(=O)ON=C1SCOC1C (stereo not drawn) | A
40 | CN(SSc1ccc(C(C)(C)C)cc1)C(=O)ON=C1CSCCS1 | A

The compounds below were run on root-knot nematode (Meloidogyne incognita var. acrita) (assay: Nematode Test). Settings: 10 ml of 500 parts per million formulation per jar of soil; cucumber indicator crop, approximately three weeks.
Assay type: in vivo
Design: key: 1: severe galling; equal to untreated control; 2: moderate galling; 3: light galling; 4: very light galling; 5: no galling
Protocol: as §1
Infective migratory larvae of the root-knot nematode, (Meloidogyne incognita var. acrita) were reared in the greenhouse on roots of Rutgers variety tomato plant. Infected tomato plants were removed from the culture and the roots were chopped very finely. A small amount of inoculum from the roots was added to pint Mason jars containing approximately 180 cc of soil. The jars containing the inoculum and soil were capped and incubated for one week at room temperature. During this period eggs of the nematode hatched and the larvae forms migrated into the soil.
The test compounds were formulated by diluting the stock suspension with water to give a suspension containing 500 parts of test compound per million parts of final formulation. 10 milliliters of the test formulation was added to each of two jars for each dosage treated. As a control 10 milliliters of a water-acetone-emulsifier solution containing no test compound was also added to jars containing nematode larvae. The jars were capped and the contents thoroughly mixed on a kale mill for five minutes. The jars remained capped at room temperature for a period of 48 hours and the contents were then transferred to 3 inch pots. Subsequently, the pots were seeded to cucumber as an indicator crop and placed in the green house where they were cared for in the normal fashion for growing potted cucumber for approximately three weeks. These cucumber plants were then removed from the pots, the soil washed from the roots and the amount of galling visually rated.

Row | Structure (SMILES) | Nematodes, nematocidal toxicity rating (galling)
41 | CCCCSSN(C)C(=O)ON=C1SC(C)(C)C(=O)N1C | 5
42 | Cc1ccc(SSN(C)C(=O)ON=C2SCOC2C)cc1 (stereo not drawn) | 1
43 | CC(C)SSN(C)C(=O)ON=C1SCOC1C (stereo not drawn) | 1
44 | CN(SSc1ccccc1)C(=O)ON=C1SC(C)(C)C(=O)N1C | 1
45 | CN(SSc1ccc(C(C)(C)C)cc1)C(=O)ON=C1SC(C)(C)C(=O)N1C | 1
46 | Cc1ccc(SSN(C)C(=O)ON=C2SC(C)(C)C(=O)N2C)cc1 | 1
47 | CCCCCCCCSSN(C)C(=O)ON=C1SCOC1C (stereo not drawn) | 1
48 | CN(SSc1ccc(C(C)(C)C)cc1)C(=O)ON=C1CSCCS1 | 4
